O=C(NCC1CCN(C(=O)OCc2ccccc2)CC1)c1ccc(O)cc1 [Example 1, 4-[(4-Hydroxy-benzoylamino)-methyl]-piperidine-1-carboxylic acid benzyl ester]
melting point: 122 to 123 °C
